Square brackets hold non-standard residues; d marks the D form. Peptide text beside a SMILES is read from it. * marks the point of attachment. Nle = CCCC[C@H](N)C(=O)O; Cbz = O=C(OCc1ccccc1)*
How the values were obtained:
Notch-1 = test: Notch Western blot in MDA-MB231 cells; format: cell-based, human
Experimental: Notch silencing was confirmed by Western blot using commercial goat polyclonal antibodies from Santa Cruz Biotechnology to Notch-1 (C-20, Cat# sc-6014 S) and Notch-4 (C-19, Cat# sc-8644). Total cell lysates were prepared as follows: cells grown on 6 cm dishes were scraped in lysis buffer containing 1×PBS, 1% Nonidet P40, 0.5% deoxycholate, 0.1% SDS, freshly added aprotinin (45 μg/ml), phenylmethylsulfonyl fluoride (10 μg/ml), and sodium orthovanadate (10 μM). Lysates were sonicated 4 times for 5 seconds each, followed by 30 minutes incubation on ice. Lysates were centrifuged at 10,000 g for 20 minutes at 4° C. Supernatants were used as total cell lysates. Nuclear extracts were prepared as follows: 10,000,000 cells were pelleted, washed, and quickly frozen in a dry ice bath. Pellets were thawed by adding 100 μl of buffer 1 (10 mM HEPES, pH 7.9, 10 mM KCl, 1.5 mM MgCl2, 1 mM DTT). Nuclei were pelleted and lysed in 15 μl Buffer 2 (20 mM HEPES, pH7.9, 0.4 M NaCl, 1.5 mM MgCl2, 25% glycerol, 0.2 mM EDTA, 1 mM DTT, and 0.5 mM PMSF). Lysates were diluted in 50-70 μl Buffer 3 (20 mM HEPES, pH 7.9, 50 mM KCl, 20% glycerol, 0.2 mM EDTA, 1 mM DTT, 0.5 mM PMSF). Protein concentrations were estimated using the BCA protein assay (Pierce). Supernatants were boiled in reducing SDS sample buffer (Novex). Twenty μg protein per lane were run on a 3-8% Tris acetate gel (Invitrogen) in Tris Acetate Reducing Running Buffer (Novex). Protein bands were transferred onto PVDF membranes (BioRad) using transfer buffer (Novex). Membranes were then blocked overnight at 4° C. in 2% blocking solution in TBS (Roche). Primary antibodies were diluted in 2% Boehringer blocking solution (total volume 5 ml). Membranes were incubated for one hour at room temperature with shaking, then washed 6 times for 10 minutes each in TBS wash buffer. Membranes were incubated in secondary antibody in 2% of blocking solution for 30 minutes, then washed 6 times for 10 minutes each at RT in wash buffer. Bands were detected with chemiluminescent reagent (Roche) according to the manufacturer's directions. […]

NOXA = test: Western blot of NOXA after proteasome inhibitors in normal melanocytes; format: cell-based, human; conditions: 18 hrs
Text: A panel of melanoma cells were used to assess the effect of bortezomib on pro-apoptotic proteins. RJ002L, C8161, MUM2B and SK-MeI-28 melanoma cells, as well as two normal melanocyte cultures (MC-010 and MC-012) were examined. Prior to testing, the RJ002L melanoma cell lines were maintained in RPMI supplemented with 10% FBS. Late passage melanoma cell lines (C8161, MUM2B and SK-Me1028) were utilized as previously described (Welch D et al., 1991, Int J Cancer 47:227-237; Bittner M et al., 2000, Nature 406:536-540). Normal human melanocytes were isolated from neonatal foreskins and cultured as previously described (Qin J et al., 2004, Mol Cancer Ther 3:895-902). Proliferating cells were examined by Western blot analysis before and after 18 hrs of exposure to bortezomib (1 μM). Antibodies were obtained as follows: Bad (SC-8044), Bcl-2 (SC-7382), Bcl-xL (SC-634), Mcl-1 (SC-819), Bak (SC-832) from Santa Cruz Biotechnology (Santa Cruz, Calif.); NOXA (OP180) from Calbiochem; Bid, Bim and PUMA from Cell Signaling (Beverly, Mass.); BAX from Upstate (Charlottesville, Va.); and β-actin from ICN (Irvine, Calif.). For the Western blot analysis, whole cell extracts were prepared as previously described (Denning M et al., 1998, J Biol Chem 273:29995-30002). Briefly, cells were harvested by scraping monolayers and washed with PBS. Cell pellets were resuspended in CHAPS buffers containing a protease inhibitor cocktail. Extracts were vigorously shaken at 4° C. for 15 min followed by centrifugation. Supernatants were collected and protein concentration determined using Bio-Rad reagent. Thirty to 50 microgram protein samples were resolved by SDS-polyacrylamide gel electrophoresis and transferred to polyvinylidene difluoride membrane by electroblotting. Membranes were probed with the various primary antibodies overnight at 4° C., followed by detection using ECL reagents (Amersham Pharmacia Biotech, Piscataway, N.J.) according to manufacturer's instructions.
Two other proteasome inhibitors, lactasytsin and MG-132, were tested for the ability to induce NOXA in melanoma cells and melanocytes. […]

Compound: CCCC[C@@H](C=O)NC(=O)[C@H](CC(C)C)NC(=O)[C@H](CC(C)C)NC(=O)OCc1ccccc1 [z-Leu-Leu-Nle-CHO, N-benzyloxycarbonyl-leucyl-leucyl-norleucinal] (Cbz-Leu-Leu-[Nle]-aldehyde)
- N^IC and N^TM levels (Notch-1; MDA-MB231, 0.5, 1 or 2 μM, 24 h, virtually complete at 2 μM): dose-dependent decrease in N^IC and relative accumulation of N^TM

Compound: CC(C)C[C@H](NC(=O)[C@H](Cc1ccccc1)NC(=O)c1cnccn1)B(O)O [bortezomib, N-(2-pyrazine)carbonyl-L-phenylalanine-L-leucine boronic acid]
- NOXA induction (NOXA; MC-010, MC-012, 1 μM): did not exhibit NOXA induction

Compound: 5′-AAGTGTCTGAGGCCAGCAAGA-3′ [Notch-1 siRNA]
- expression of Notch-1 and Notch-4 (Notch-1; MDA-MB231 / HMEC, data not shown): strongly inhibited the expression of both Notch-1 and -4

Compound: CC(C)C[C@@H](C=O)NC(=O)[C@H](CC(C)C)NC(=O)[C@H](CC(C)C)NC(=O)OCc1ccccc1 [MG-132, benzoxycarbonyl-Leucyl-Leucyl-Leucyl-aldehyde] (Cbz-Leu-Leu-Leu-aldehyde)
- NOXA induction (NOXA; MC-004, MC-005, MC-006, MC-008, 1 μM or 10 μM): no induction of NOXA in any of the normal melanocytes

From patent US20080220416A1, “Compositions for Inhibiting Cell Growth and Inducing Apoptosis in Cancer Cells and Methods of Use Thereof” (THE BOARD OF TRUSTEES OF THE UNIVERSITY OF ILLINOI, priority 2004, published 2008)
